{
  "source": "patent US20100222421A1",
  "about": "“Usage of Baicalein in the Preparation of a Pharmaceutical Composition for the Treatment of Traumatic Brain Injury” (National Defense Medical Center, priority 2009, published 2010)",
  "key": {"[1]": {"test_system": "rats with controlled cortical impact (CCI) injury", "test": "Beam walk test after CCI injury", "assay_type": "in vivo, rat", "procedure": "A previously described CCI injury procedure was utilized (Chen et al., 2003). Male Sprague-Dawley rats, which have body weight of 250-300 g, were anaesthetized with sodium pentobarbital (i.p.; 50 mgkg^−1; Rhone Merieux, Harlow, UK) and placed in a stereotaxic frame. A 5-mm craniotomy was performed over the left parietal cortex, centered on the coronal suture and 3 mm lateral to the sagittal suture. Considerable care was taken to avoid injury to the underlying dura. Injury was made using a pneumatic piston with a rounded metal tip (2.5 mm diameter) that was angled 22.5° C. to the vertical so that the tip was perpendicular with the brain surface at the centre of the craniotomy. A velocity of 4 ms^−1 and a deformation depth 2 mm below the dura were used. The bone flap was immediately replaced and sealed, and the scalp was closed with sutures. Body temperature was monitored throughout the surgery by a rectal probe; temperature was maintained at 37.0±0.5° C. using a heated pad. Rats were placed in a heated cage to maintain body temperature, while recovering from anaesthesia. Baicalein (30 mg kg^−1) dissolved in 10% dimethyl sulphoxide (0.25-0.3 mL) or a corresponding volume of vehicle (10% dimethyl sulphoxide) was administered i.p. immediately following injury or daily for 4 days (immediately, 25, 49 and 73 h) after injury. Behaviour testing using the rotarod, tactile adhesive removal, mNSS and beam walk tests was performed at 28 hours as well as 4, 7, 14, 21 and 28 days post-injury. At 14 and 28 days, the animals were killed, perfused intravascularly and their brains were processed with cresyl violet staining to assess contusion volume (n=8 for each group). […] Behaviour testing was performed before CCI and at […] by an observer who was unaware of the experimental treatments. The battery of tests consisted of the rotarod motor test, tactile adhesive-removal somatosensory test, mNSS and beam walk test. Animals were pretrained for 3 days for the rotarod, tactile adhesiveremoval somatosensory and beam walk tests (see below). The beam walk test was utilized to evaluate fine motor coordination and function (Feeney et al., 1982). Rats escaped from a bright light and loud white noise by walking along a narrowed wooden beam (2.5×122.0 cm) to enter a darkened goal box at the opposite end of the beam. The latency for the rat to reach the goal box (not to exceed 60 s) and hindlimb performance as he traversed the beam (based on a 1-7 rating scale) were recorded. A score of 7 was given when animals traversed the beam with two or less foot slips. A score of 6 was given when animals traversed the beam with less than 50% foot slips. A score of 5 was given for more than 50% but less than 100% foot slips. A score of 4 was given for 100% foot slips. A score of 3 was given for traversal with the affected limb extended and not reaching the surface of the beam. A score of 2 was given when the animal was able to balance on the beam but not traverse it. A score of 1 was given when the animal could not balance on the beam. Three trials were recorded 1 hour before CCI (baseline), and each day after CCI. Mean values of latency and score for each day were computed."}, "[2]": {"test_system": "rats with controlled cortical impact (CCI) injury", "test": "Tactile adhesive-removal somatosensory test after CCI injury", "assay_type": "in vivo, rat", "conditions": "P<0.05; for adhesive-removal times versus vehicle-treated rats: days 1, 4 and 7", "procedure": "A previously described CCI injury procedure was utilized (Chen et al., 2003). Male Sprague-Dawley rats, which have body weight of 250-300 g, were anaesthetized with sodium pentobarbital (i.p.; 50 mgkg^−1; Rhone Merieux, Harlow, UK) and placed in a stereotaxic frame. A 5-mm craniotomy was performed over the left parietal cortex, centered on the coronal suture and 3 mm lateral to the sagittal suture. Considerable care was taken to avoid injury to the underlying dura. Injury was made using a pneumatic piston with a rounded metal tip (2.5 mm diameter) that was angled 22.5° C. to the vertical so that the tip was perpendicular with the brain surface at the centre of the craniotomy. A velocity of 4 ms^−1 and a deformation depth 2 mm below the dura were used. The bone flap was immediately replaced and sealed, and the scalp was closed with sutures. Body temperature was monitored throughout the surgery by a rectal probe; temperature was maintained at 37.0±0.5° C. using a heated pad. Rats were placed in a heated cage to maintain body temperature, while recovering from anaesthesia. Baicalein (30 mg kg^−1) dissolved in 10% dimethyl sulphoxide (0.25-0.3 mL) or a corresponding volume of vehicle (10% dimethyl sulphoxide) was administered i.p. immediately following injury or daily for 4 days (immediately, 25, 49 and 73 h) after injury. Behaviour testing using the rotarod, tactile adhesive removal, mNSS and beam walk tests was performed at 28 hours as well as 4, 7, 14, 21 and 28 days post-injury. At 14 and 28 days, the animals were killed, perfused intravascularly and their brains were processed with cresyl violet staining to assess contusion volume (n=8 for each group). […] Behaviour testing was performed before CCI and at […] after CCI by an observer who was unaware of the experimental treatments. […] The time required for each rat to remove adhesive from the forelimb was recorded for five trials per day. […] One hour before CCI, mean latency (in seconds) over five trials to remove the contralateral (right) adhesive was recorded as the pre-injury baseline value."}},
  "data": [
    {"smiles": "O=c1cc(-c2ccccc2)oc2cc(O)c(O)c(O)c12", "note": "[baicalein]", "values": [
      {"measurement": "differences in hindlimb motor scores between single-dose and multiple-dose groups", "setting": "[1]; 30 mg kg^-1 i.p., any testing day, P>0.05", "result": "not significant"},
      {"measurement": "beam walk latencies, multiple-dose versus single-dose group", "setting": "[1]; 30 mg kg^-1 i.p., days 1 and 4, P<0.05", "result": "significantly shorter"},
      {"measurement": "beam walk latencies versus vehicle group", "setting": "[1]; multiple-dose 30 mg kg^-1 i.p. daily for 4 days, days 1, 4, 7, 21 and 28, P<0.05", "result": "significantly shorter"},
      {"measurement": "decrease in hindlimb motor scores (beam walk) versus vehicle group", "setting": "[1]; multiple-dose 30 mg kg^-1 i.p. daily for 4 days, days 1, 4, 14, 21 and 28, P<0.05", "result": "significantly different"},
      {"measurement": "decrease in hindlimb motor scores (beam walk) versus vehicle group", "setting": "[1]; single-dose 30 mg kg^-1 i.p., days 4, 7, 14 and 21, P<0.05", "result": "significantly different"},
      {"measurement": "beam walk latencies versus vehicle group", "setting": "[1]; single-dose 30 mg kg^-1 i.p., days 4 and 21, P<0.05", "result": "significantly shorter"},
      {"measurement": "adhesive-removal times, multiple doses versus single dose", "setting": "[2]; 30 mg kg^-1 i.p., only on day 7 after injury", "result": "significantly lower"},
      {"measurement": "adhesive-removal times versus vehicle-treated rats", "setting": "[2]; multiple-dose 30 mg kg^-1 i.p. daily for 4 days", "result": "significantly lower"},
      {"measurement": "adhesive-removal times versus vehicle-treated rats", "setting": "[2]; single-dose 30 mg kg^-1 i.p.", "result": "significantly lower"}
    ]}
  ]
}
